The values below come from US11766413B2 (Nacuity Pharmaceuticals, Inc., priority 2019, dated 2023).

Entries after “also recorded” stand apart in the source; their conditions may differ.

Data set [1] can be described thus: Evaluation of retinal penetration of NACA: NACA and NAC levels in plasma, aqueous, vitreous and retina after NACA in drinking water. The settings on record: for concentration at 7 days: mouse, retina, oral, 20 mg/mL in drinking water, 20 mg/mL NACA in drinking water, P28 to P35, estimated dose 60-80 mg/day; for mean levels in the retina compared with plasma / measurability in the retina: animals treated with NACA; for measurability in the retina: N=20 eyes per strain; for measurements in aqueous, vitreous and retina: nearly all measurements, limit of quantification of the assay. The data set is classed as in vivo, mice (rd10/rd10 and wild type C57/BL6). As for the experimental part: Animals and Treatments. Mice were treated in accordance with the recommendations of the Association for Research in Vision and Ophthalmology. Litters of homozygous rd10/rd10 mice (B6.CXB1-Pde6brd10/J) and wild type C57/BL6 mice (The Jackson Laboratory, Bar Harbor, Me.) were used for these studies.
Starting on post-natal day 28 (P28), animals were given normal drinking water (n=10 for each strain) or water containing 20 mg/ml NACA (n=10 for each strain).
Analysis of NACA and NAC. Upon sacrifice of the mice on P35, retina, aqueous, vitreous and plasma were collected, weighed, and stabilized as quickly as possible and stored at −80° C. prior to shipment to AIT Bioscience, LLC (Indianapolis, Ind.). The bioanalytical method (BAM.0445.01) for the quantitation of total NAC NACA in K2EDTA was based on derivatization, protein precipitation extraction, and LC-MS/MS instrumental analysis. Any disulfides were reduced to free thiols and subsequently reacted with 2-chloro-1-methylpyridinium iodide (CMPI) to form stable thioethers. The thioether derivatives were detected by LC-MS/MS. Stable label isotope internal standards were used. The method covered a concentration range from 50.0 to 50,000 ng/mL. The thiol moiety of NAC, NACA, and their respective internal standards oxidizes quickly in plasma through formation of disulfides. In order to determine total NAC and total NACA levels in plasma, tris(2-carboxyethyl)phosphine (TCEP) is added during the extraction to reduce disulfide bonds. Ammonium bicarbonate is added to control sample pH near neutral, as TCEP will otherwise acidify the aliquoted samples and hinder derivatization. The free analyte is then derivatized to a stable thioether using 2-chloro-1-methylpyridinium iodide (CMPI). N-acetyl-L-cysteine is used as the reference standard. The assay would not discern the enantiomer, N-acetyl-D-cysteine, if present. A sample volume of 25.0 μL was aliquotted into a 1.2 mL 96-well plate to which was added, in sequence, 25.0 μL internal standard solution (1000 ng/mL NAC-D3 and 1000 ng/mL NACA-D3 in water), 50.0 μL of ammonium bicarbonate (100 mM), 5.0 μL CMPI (60 mM in water), and 5.0 μL of TCEP (60 mM in water). Samples were allowed to react for 30 minutes. To precipitate proteins, 500 μL of acetonitrile was then added to all samples. The plate was covered and the mixtures were shaken and centrifuged. A 50.0 μL aliquot of the supernatant was transferred from each well to a clean plate containing 400 μL of water-acetonitrile (25-75) in each well, and mixed well prior to LC-MS injection.
Samples were analyzed on a Waters Acquity liquid chromatograph interfaced with a Thermo Scientific TSQ Vantage triple quadrupole mass spectrometer with ESI ionization. Each extracted sample was injected (5.0 μL) onto a Waters BEH HILIC column (2.1×100 mm; 1.7 μm) equilibrated at 35° C. Mobile Phase A was ammonium formate (25 mM, pH 3.8). Mobile Phase B was acetonitrile. The LC gradient is tabled below: […]
Peak area ratios from the calibration standard responses were regressed using a (1/concentration^2) linear fit for N-Acetyl-L-Cysteine and N-Acetylcysteine amide.
Evaluation of Retinal Penetration of NACA. To determine retinal levels of NACA/NAC after administration of 20 mg/mL NACA in drinking water for 7 days. This experiment will provide rapid confirmation that NACA and/or NAC penetrate the retina following oral administration. This experiment will also evaluate if the breakdown in the blood-retinal barrier in RP affects the levels of NACA in the retina by comparing animals with RP to wild type mice.
Rd10 and C57BL/6 wild type mice will begin treatment at P28 and at P35 mice will be euthanized and plasma, vitreous and retina samples will be sent to AITB for determination of NAC and NACA levels. Experimental groups: (n=10/group). The research was performed in 3 discrete experiments: […]

The conditions of data set [2]: humans, oral dose of 600 mg; cited from earlier work.
The test system of another data set is diabetic rats. The note with it: cited from earlier work.
In data set [3] the target is T1, glutamate cysteine ligase (GCL, EC 6.3.2.2) (Homo sapiens, UniProt P48506).
T1 sequence (P48506 1-637): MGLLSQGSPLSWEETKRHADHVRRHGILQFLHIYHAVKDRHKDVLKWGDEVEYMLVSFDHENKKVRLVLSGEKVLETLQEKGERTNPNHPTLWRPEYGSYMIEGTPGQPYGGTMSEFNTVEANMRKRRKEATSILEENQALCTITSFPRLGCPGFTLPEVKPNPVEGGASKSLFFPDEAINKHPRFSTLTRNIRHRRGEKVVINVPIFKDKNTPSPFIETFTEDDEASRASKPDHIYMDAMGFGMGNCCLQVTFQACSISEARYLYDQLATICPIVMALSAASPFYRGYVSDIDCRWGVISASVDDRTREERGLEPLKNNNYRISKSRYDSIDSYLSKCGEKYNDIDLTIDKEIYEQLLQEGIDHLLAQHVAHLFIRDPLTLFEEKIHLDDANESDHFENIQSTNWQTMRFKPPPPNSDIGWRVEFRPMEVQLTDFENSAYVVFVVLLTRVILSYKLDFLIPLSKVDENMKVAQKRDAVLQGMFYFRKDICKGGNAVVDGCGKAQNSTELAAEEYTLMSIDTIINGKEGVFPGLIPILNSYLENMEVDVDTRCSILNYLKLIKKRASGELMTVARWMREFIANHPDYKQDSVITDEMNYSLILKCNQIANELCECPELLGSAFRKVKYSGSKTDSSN
T1 sequence (P48507 1-274 partner): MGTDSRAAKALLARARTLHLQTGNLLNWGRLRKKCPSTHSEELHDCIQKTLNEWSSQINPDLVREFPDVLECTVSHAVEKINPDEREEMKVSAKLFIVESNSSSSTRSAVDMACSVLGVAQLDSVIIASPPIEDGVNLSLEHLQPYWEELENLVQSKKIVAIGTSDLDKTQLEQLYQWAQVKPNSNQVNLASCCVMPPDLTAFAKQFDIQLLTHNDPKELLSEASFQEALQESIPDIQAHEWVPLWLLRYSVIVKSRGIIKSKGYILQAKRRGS
The note with it: substrate of GCL; read-out: apparent Km; cited from earlier work.

Setting [4] is: 20 mg/ml NACA in drinking water.

As for `CC(=O)N[C@@H](CS)C(N)=O`, in data set [1] (setting [4]), the “mean levels in aqueous humor compared with plasma” value was “lower than in plasma” and the “mean levels in plasma, rd10 compared with wild type” value is “greater in rd10 mice than in the wild type”. Also, in data set [1] (C57/BL6 (wild type), wild type mice), the concentration at 7 days was around 2400 ng/g. Also, in data set [1] (N=8 eyes rd10, N=10 C57/B16), the “mean concentration in the aqueous humor, rd10 compared with wild type” value was “higher in rd10 mice than wild type”. For the same molecule, in data set [1], the “mean levels in the retina compared with plasma” value is recorded as “higher than those observed in plasma”; the “measurability in the retina” value is reported as “measurable in all animals”; the “measurements in aqueous, vitreous and retina” value is on record as “BLQ”. In data set [1] (both strains, 20 mg/ml NACA in drinking water, N=10 per strain), the “mean NACA levels in plasma compared with NAC levels” value is given as “greater than the NAC levels”. The “ratio of NACA:NAC in the retina, rd10 compared with C57/B16” value in data set [1] (oral NACA 20 mg/mL in drinking water) is “penetrated retina to a greater extent in rd10 mice than in C57/B16 mice; also recorded: greater in the retina of rd10 mice than in C57/B16 mice”. Also, the concentration at 7 days in data set [1] (rd10/rd10 (B6.CXB1-Pde6brd10/J), rd10 mice) is around 6500 ng/g.
In the case of `CC(=O)N[C@@H](CS)C(=O)O` [NAC, N-acetyl-L-cysteine, reference compound], in data set [1] (setting [4]), the “mean levels in aqueous humor compared with plasma” value was “lower than in plasma” and the “mean levels in plasma, rd10 compared with wild type” value is listed as “greater in rd10 mice than in the wild type”. In data set [1], the “mean levels in the retina compared with plasma” value was “higher than those observed in plasma”; the “measurability in the retina” value is recorded as “measurable in all animals”; the “measurements in aqueous, vitreous and retina” value was “BLQ”. Also, in data set [2], the “time after administration at which no NAC is detectable” value was 10 to 12 h. Further, the “expression of VEGF and ICAM-1” value with diabetic rats (after 5-month treatment) was “returned to basal levels”. In addition, in the data set with diabetic rats, the “up-regulation of VEGF and ICAM-1 expression in retinal blood vessels” value was “attenuated”. In addition, the “reactive oxygen species contents in the retinas” value in the data set with diabetic rats (most significantly at 5 months) is given as “decreased reactive oxygen species”. Further, in the data set with diabetic rats (sacrificed at 3 and 5 months), the “retinal pathological changes (electron and light microscopy)” value was “alleviated the pathological changes”.
Regarding `N[C@@H](CS)C(=O)O` [cysteine, L-cysteine], the Km – broadly, the concentration of substrate that gives half-maximal velocity – in data set [3] was 100 to 300 µM.
